According to the NIST ThermoML archive (doi:10.1021/je060271a):
Numbers after ± are expanded uncertainties.

Conditions: 323.15 K, Liquid, Vibrating tube method

With CCCCCCCC(=O)OCC(COC(=O)CCCCCCC)(COC(=O)CCCCCCC)COC(=O)CCCCCCC [pentaerythritol tetraoctanoate] the mass density (26616 kPa) was 957.5 ± 1.2 kg/m3, the mass density (26661 kPa) was 957.4 ± 1.2 kg/m3 and the mass density (26699 kPa) was 957.6 ± 1.2 kg/m3. For the same compound, the mass density (26737 kPa) was 957.5 ± 1.2 kg/m3, the mass density (26782 kPa) was 957.5 ± 1.2 kg/m3 and the mass density (26820 kPa) was 957.5 ± 1.2 kg/m3. The mass density (26866 kPa) was 957.6 ± 1.2 kg/m3, the mass density (26904 kPa) was 957.6 ± 1.2 kg/m3 and the mass density (26944 kPa) was 957.7 ± 1.2 kg/m3. For the same compound, the mass density (26985 kPa) was 957.7 ± 1.2 kg/m3, the mass density (27024 kPa) was 957.7 ± 1.2 kg/m3 and the mass density (27070 kPa) was 957.8 ± 1.2 kg/m3. It also gave a mass density (27109 kPa) of 957.9 ± 1.2 kg/m3, a mass density (27407 kPa) of 957.9 ± 1.2 kg/m3 and a mass density (27548 kPa) of 957.8 ± 1.2 kg/m3. For the same compound, the mass density (27601 kPa) was 958 ± 1.2 kg/m3, the mass density (27639 kPa) was 958.1 ± 1.2 kg/m3 and the mass density (27665 kPa) was 958.1 ± 1.2 kg/m3. For the same compound, the mass density (27687 kPa) was 958.2 ± 1.2 kg/m3, the mass density (27713 kPa) was 958.1 ± 1.2 kg/m3 and the mass density (27735 kPa) was 958.1 ± 1.2 kg/m3. It also gave a mass density (27761 kPa) of 958.2 ± 1.2 kg/m3, a mass density (27784 kPa) of 958.1 ± 1.2 kg/m3 and a mass density (27806 kPa) of 958.3 ± 1.2 kg/m3. For the same compound, the mass density (27832 kPa) was 958.2 ± 1.2 kg/m3, the mass density (27854 kPa) was 958.3 ± 1.2 kg/m3 and the mass density (27877 kPa) was 958.2 ± 1.2 kg/m3. The mass density (27899 kPa) was 958.2 ± 1.2 kg/m3, the mass density (27926 kPa) was 958.2 ± 1.2 kg/m3 and the mass density (27943 kPa) was 958.3 ± 1.2 kg/m3. It also gave a mass density (27970 kPa) of 958.3 ± 1.2 kg/m3, a mass density (28091 kPa) of 958.4 ± 1.2 kg/m3 and a mass density (28114 kPa) of 958.4 ± 1.2 kg/m3. For the same compound, the mass density (28142 kPa) was 958.4 ± 1.2 kg/m3, the mass density (28164 kPa) was 958.3 ± 1.2 kg/m3 and the mass density (28188 kPa) was 958.3 ± 1.2 kg/m3. The mass density (28216 kPa) was 958.4 ± 1.2 kg/m3, the mass density (28238 kPa) was 958.4 ± 1.2 kg/m3 and the mass density (28262 kPa) was 958.4 ± 1.2 kg/m3. The mass density (28284 kPa) was 958.5 ± 1.2 kg/m3, the mass density (28312 kPa) was 958.6 ± 1.2 kg/m3 and the mass density (28336 kPa) was 958.5 ± 1.2 kg/m3. It also gave a mass density (28358 kPa) of 958.6 ± 1.2 kg/m3, a mass density (28386 kPa) of 958.5 ± 1.2 kg/m3 and a mass density (28410 kPa) of 958.5 ± 1.2 kg/m3. The mass density (28434 kPa) was 958.4 ± 1.2 kg/m3, the mass density (28461 kPa) was 958.5 ± 1.2 kg/m3 and the mass density (28484 kPa) was 958.5 ± 1.2 kg/m3. It also gave a mass density (28508 kPa) of 958.6 ± 1.2 kg/m3, a mass density (28531 kPa) of 958.6 ± 1.2 kg/m3 and a mass density (28559 kPa) of 958.6 ± 1.2 kg/m3. It also gave a mass density (28583 kPa) of 958.6 ± 1.2 kg/m3, a mass density (28607 kPa) of 958.7 ± 1.2 kg/m3 and a mass density (28635 kPa) of 958.6 ± 1.2 kg/m3. For the same compound, the mass density (28658 kPa) was 958.7 ± 1.2 kg/m3, the mass density (28687 kPa) was 958.9 ± 1.2 kg/m3 and the mass density (28711 kPa) was 958.7 ± 1.2 kg/m3. For the same compound, the mass density (28734 kPa) was 958.8 ± 1.2 kg/m3, the mass density (28758 kPa) was 958.6 ± 1.2 kg/m3 and the mass density (28787 kPa) was 958.8 ± 1.2 kg/m3. It also gave a mass density (28812 kPa) of 958.8 ± 1.2 kg/m3, a mass density (28836 kPa) of 958.8 ± 1.2 kg/m3 and a mass density (28860 kPa) of 958.9 ± 1.2 kg/m3. The mass density (28889 kPa) was 958.7 ± 1.2 kg/m3, the mass density (28913 kPa) was 958.9 ± 1.2 kg/m3 and the mass density (28937 kPa) was 958.8 ± 1.2 kg/m3. For the same compound, the mass density (28966 kPa) was 958.9 ± 1.2 kg/m3, the mass density (28990 kPa) was 958.9 ± 1.2 kg/m3 and the mass density (29019 kPa) was 958.9 ± 1.2 kg/m3. For the same compound, the mass density (29043 kPa) was 958.8 ± 1.2 kg/m3, the mass density (29068 kPa) was 958.9 ± 1.2 kg/m3 and the mass density (29098 kPa) was 958.9 ± 1.2 kg/m3. For the same compound, the mass density (29122 kPa) was 958.9 ± 1.2 kg/m3, the mass density (29148 kPa) was 958.9 ± 1.2 kg/m3 and the mass density (29173 kPa) was 959.1 ± 1.2 kg/m3. It also gave a mass density (29198 kPa) of 959 ± 1.2 kg/m3, a mass density (29218 kPa) of 959 ± 1.2 kg/m3 and a mass density (29248 kPa) of 959 ± 1.2 kg/m3. For the same compound, the mass density (29273 kPa) was 959 ± 1.2 kg/m3, the mass density (29302 kPa) was 959.1 ± 1.2 kg/m3 and the mass density (29333 kPa) was 959.1 ± 1.2 kg/m3. For the same compound, the mass density (29357 kPa) was 959.1 ± 1.2 kg/m3, the mass density (29383 kPa) was 959.1 ± 1.2 kg/m3 and the mass density (29412 kPa) was 959.1 ± 1.2 kg/m3. The mass density (29438 kPa) was 959.2 ± 1.2 kg/m3, the mass density (29462 kPa) was 959.2 ± 1.2 kg/m3 and the mass density (29494 kPa) was 959.2 ± 1.2 kg/m3. For the same compound, the mass density (29520 kPa) was 959.1 ± 1.2 kg/m3, the mass density (29545 kPa) was 959.2 ± 1.2 kg/m3 and the mass density (29571 kPa) was 959.2 ± 1.2 kg/m3. For the same compound, the mass density (29601 kPa) was 959.1 ± 1.2 kg/m3, the mass density (29627 kPa) was 959.3 ± 1.2 kg/m3 and the mass density (29652 kPa) was 959.2 ± 1.2 kg/m3. It also gave a mass density (29682 kPa) of 959.4 ± 1.2 kg/m3, a mass density (29708 kPa) of 959.2 ± 1.2 kg/m3 and a mass density (29733 kPa) of 959.3 ± 1.2 kg/m3. The mass density (29764 kPa) was 959.3 ± 1.2 kg/m3, the mass density (29790 kPa) was 959.3 ± 1.2 kg/m3 and the mass density (29816 kPa) was 959.3 ± 1.2 kg/m3. The mass density (29847 kPa) was 959.3 ± 1.2 kg/m3, the mass density (29873 kPa) was 959.4 ± 1.2 kg/m3 and the mass density (29898 kPa) was 959.4 ± 1.2 kg/m3. For the same compound, the mass density (29924 kPa) was 959.4 ± 1.2 kg/m3, the mass density (29956 kPa) was 959.4 ± 1.2 kg/m3 and the mass density (29982 kPa) was 959.4 ± 1.2 kg/m3. The mass density (30013 kPa) was 959.4 ± 1.2 kg/m3, the mass density (30040 kPa) was 959.4 ± 1.2 kg/m3 and the mass density (30060 kPa) was 959.5 ± 1.2 kg/m3. For the same compound, the mass density (30087 kPa) was 959.5 ± 1.2 kg/m3, the mass density (30118 kPa) was 959.5 ± 1.2 kg/m3 and the mass density (30150 kPa) was 959.6 ± 1.2 kg/m3. For the same compound, the mass density (30181 kPa) was 959.6 ± 1.2 kg/m3, the mass density (30209 kPa) was 959.5 ± 1.2 kg/m3 and the mass density (30235 kPa) was 959.6 ± 1.2 kg/m3. The mass density (30267 kPa) was 959.6 ± 1.2 kg/m3, the mass density (30294 kPa) was 959.6 ± 1.2 kg/m3 and the mass density (30321 kPa) was 959.6 ± 1.2 kg/m3. It also gave a mass density (30347 kPa) of 959.6 ± 1.2 kg/m3, a mass density (30380 kPa) of 959.7 ± 1.2 kg/m3 and a mass density (30407 kPa) of 959.7 ± 1.2 kg/m3. It also gave a mass density (30434 kPa) of 959.6 ± 1.2 kg/m3, a mass density (30466 kPa) of 959.7 ± 1.2 kg/m3 and a mass density (30493 kPa) of 959.7 ± 1.2 kg/m3. The mass density (30521 kPa) was 959.7 ± 1.2 kg/m3, the mass density (30553 kPa) was 959.8 ± 1.2 kg/m3 and the mass density (30581 kPa) was 959.6 ± 1.2 kg/m3. For the same compound, the mass density (30608 kPa) was 959.8 ± 1.2 kg/m3, the mass density (30635 kPa) was 959.8 ± 1.2 kg/m3 and the mass density (30668 kPa) was 959.8 ± 1.2 kg/m3. It also gave a mass density (30696 kPa) of 959.8 ± 1.2 kg/m3, a mass density (30728 kPa) of 959.8 ± 1.2 kg/m3 and a mass density (30756 kPa) of 959.9 ± 1.2 kg/m3. It also gave a mass density (30778 kPa) of 959.9 ± 1.2 kg/m3, a mass density (30806 kPa) of 959.9 ± 1.2 kg/m3 and a mass density (30834 kPa) of 960 ± 1.2 kg/m3. For the same compound, the mass density (30862 kPa) was 959.9 ± 1.2 kg/m3, the mass density (30906 kPa) was 960 ± 1.2 kg/m3 and the mass density (30934 kPa) was 959.8 ± 1.2 kg/m3. The mass density (30962 kPa) was 959.9 ± 1.2 kg/m3, the mass density (30991 kPa) was 960 ± 1.2 kg/m3 and the mass density (31025 kPa) was 960 ± 1.2 kg/m3. It also gave a mass density (31053 kPa) of 959.9 ± 1.2 kg/m3, a mass density (31086 kPa) of 960 ± 1.2 kg/m3 and a mass density (31115 kPa) of 960 ± 1.2 kg/m3. The mass density (31143 kPa) was 959.9 ± 1.2 kg/m3, the mass density (31171 kPa) was 960.1 ± 1.2 kg/m3 and the mass density (31205 kPa) was 960.1 ± 1.2 kg/m3. The mass density (31233 kPa) was 960.2 ± 1.2 kg/m3.
